Experimental data published in PubChem BioAssay AID720672 (NMMLSC, 2013).
The source made the active and inactive calls. The rule behind the calls is not given here.

Target: Lethal factor (Bacillus anthracis) (UniProt P15917)
Assay: Bacillus anthracis LF protease inhibitors, dose response, biochemical, multiplex microsphere (AID 720672)
Conditions: multiplex microsphere LF protease substrate cleavage, flow cytometry

Chain of Lethal factor (Bacillus anthracis) (P15917 whole entry, looked up): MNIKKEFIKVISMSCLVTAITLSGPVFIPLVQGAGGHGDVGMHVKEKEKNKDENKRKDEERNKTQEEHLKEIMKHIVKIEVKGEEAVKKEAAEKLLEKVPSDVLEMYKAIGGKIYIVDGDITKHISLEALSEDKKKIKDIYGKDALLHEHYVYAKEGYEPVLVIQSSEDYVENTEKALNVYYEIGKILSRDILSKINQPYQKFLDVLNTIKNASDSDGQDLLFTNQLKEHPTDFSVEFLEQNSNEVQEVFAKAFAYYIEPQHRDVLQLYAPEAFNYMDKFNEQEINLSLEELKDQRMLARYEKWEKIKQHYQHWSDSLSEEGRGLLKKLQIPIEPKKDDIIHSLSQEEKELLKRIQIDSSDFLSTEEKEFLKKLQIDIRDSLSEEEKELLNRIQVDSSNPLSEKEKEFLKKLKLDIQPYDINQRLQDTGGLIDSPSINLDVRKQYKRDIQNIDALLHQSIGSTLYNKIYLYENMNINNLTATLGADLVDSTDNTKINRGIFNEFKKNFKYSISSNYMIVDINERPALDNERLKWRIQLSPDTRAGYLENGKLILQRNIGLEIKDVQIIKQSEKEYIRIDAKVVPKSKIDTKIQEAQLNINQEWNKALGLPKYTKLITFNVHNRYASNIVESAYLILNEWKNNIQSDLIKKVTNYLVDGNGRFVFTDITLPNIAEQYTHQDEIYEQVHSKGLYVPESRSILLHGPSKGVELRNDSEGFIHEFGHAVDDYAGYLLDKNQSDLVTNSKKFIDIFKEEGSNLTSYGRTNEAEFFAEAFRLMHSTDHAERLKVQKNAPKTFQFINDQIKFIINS

SMILES	IC50
COC(=O)Nc1ccc2nc(-c3ccccc3)c(-c3ccccc3)nc2c1	> 20 µM (inactive)
CCOC(=O)Nc1ccc2nc(-c3ccccc3)c(-c3ccccc3)nc2c1	> 20 µM (inactive)
CCNC(=O)Nc1ccc2nc(-c3ccccc3)c(-c3ccccc3)nc2c1	> 20 µM (inactive)
CCCS(=O)(=O)Nc1ccc2nc(-c3cccs3)c(-c3cccs3)nc2c1	> 20 µM (inactive)
COc1ccc(-c2cn3nc(-c4ccc(F)cc4)c(-c4ccc(F)cc4)nc3n2)cc1	6.5 µM
CCC(=O)Nc1ccc2nc(-c3cccs3)c(-c3cccs3)nc2c1	> 20 µM (inactive)
O=C(Nc1ccc2nc(-c3cccs3)c(-c3cccs3)nc2c1)C1CC1	> 20 µM (inactive)
COc1ccc(-c2nc3nc(-c4ccc(OC)cc4OC)cn3nc2-c2ccc(OC)cc2)cc1	> 20 µM (inactive)
CS(=O)(=O)c1ccc(-c2cn3nc(-c4ccccc4)c(-c4ccccc4)nc3n2)cc1	> 20 µM (inactive)
CC(C)CS(=O)(=O)Nc1ccc2nc(-c3cccs3)c(-c3cccs3)nc2c1	> 20 µM (inactive)
CCS(=O)(=O)Nc1ccc2nc(-c3ccccc3)c(-c3ccccc3)nc2c1	> 20 µM (inactive)
Fc1cccc(-c2cn3nc(-c4ccccc4)c(-c4ccccc4)nc3n2)c1	11.5 µM
Clc1ccc(-c2cn3nc(-c4ccccc4)c(-c4ccccc4)nc3n2)c(Cl)c1	> 20 µM (inactive)
Fc1ccc(-c2nc3nc(-c4ccc(OC(F)(F)F)cc4)cn3nc2-c2ccc(F)cc2)cc1	> 20 µM (inactive)
O=C(Nc1ccc2nc(-c3ccccc3)c(-c3ccccc3)nc2c1)C1CCC1	> 20 µM (inactive)
CCCNC(=O)Nc1ccc2nc(-c3ccccc3)c(-c3ccccc3)nc2c1	> 20 µM (inactive)
COc1ccccc1-c1cn2nc(-c3ccccc3)c(-c3ccccc3)nc2n1	> 20 µM (inactive)
O=C(Nc1ccc2nc(-c3ccccc3)c(-c3ccccc3)nc2c1)NC1CCCC1	> 20 µM (inactive)
Cc1ccc(-c2nc3nc(-c4ccc(OC(F)(F)F)cc4)cn3nc2-c2ccc(C)cc2)cc1	> 20 µM (inactive)
CCCS(=O)(=O)Nc1ccc2nc(-c3ccccc3)c(-c3ccccc3)nc2c1	> 20 µM (inactive)
COc1ccc(-c2cn3nc(-c4ccccc4)c(-c4ccccc4)nc3n2)c(OC)c1	> 20 µM (inactive)

SMILES	IC50
CCCCOC(=O)Nc1ccc2nc(-c3ccccc3)c(-c3ccccc3)nc2c1	> 20 µM (inactive)
N#Cc1ccc(-c2cn3nc(-c4ccccc4)c(-c4ccccc4)nc3n2)cc1	> 20 µM (inactive)
O=C(Nc1ccc2nc(-c3ccccc3)c(-c3ccccc3)nc2c1)OCc1ccccc1	> 20 µM (inactive)
COc1ccc(-c2nc3nc(-c4ccc(S(C)(=O)=O)cc4)cn3nc2-c2ccc(OC)cc2)cc1	> 20 µM (inactive)
COc1ccc(-c2cn3nc(-c4ccc(C)cc4)c(-c4ccc(C)cc4)nc3n2)cc1	> 20 µM (inactive)
CCCCOC(=O)Nc1ccc2nc(-c3cccs3)c(-c3cccs3)nc2c1	16.4 µM
CC(C)NC(=O)Nc1ccc2nc(-c3ccccc3)c(-c3ccccc3)nc2c1	> 20 µM (inactive)
CCNC(=S)Nc1ccc2nc(-c3ccccc3)c(-c3ccccc3)nc2c1	> 20 µM (inactive)
N#Cc1ccc(-c2cn3nc(-c4ccc(F)cc4)c(-c4ccc(F)cc4)nc3n2)cc1	> 20 µM (inactive)
O=C(Nc1ccc2nc(-c3ccccc3)c(-c3ccccc3)nc2c1)C1CCCC1	> 20 µM (inactive)
Cc1ccc(-c2nc3nc(-c4cccc(F)c4)cn3nc2-c2ccc(C)cc2)cc1	3.7 µM
CCNC(=O)Nc1ccc2nc(-c3cccs3)c(-c3cccs3)nc2c1	16.3 µM
COc1cccc(-c2cn3nc(-c4ccc(F)cc4)c(-c4ccc(F)cc4)nc3n2)c1	7.5 µM
COc1ccc(-c2nc3nc(-c4ccccc4)cn3nc2-c2ccc(OC)cc2)cc1	6.3 µM
Fc1ccc(-c2cn3nc(-c4ccc(F)cc4)c(-c4ccc(F)cc4)nc3n2)cc1	4 µM
COc1ccccc1-c1cn2nc(-c3ccc(F)cc3)c(-c3ccc(F)cc3)nc2n1	5.4 µM
Fc1ccc(-c2cn3nc(-c4ccccc4)c(-c4ccccc4)nc3n2)cc1	> 20 µM (inactive)
Cc1ccc(-c2nc3nc(-c4ccc(C#N)cc4)cn3nc2-c2ccc(C)cc2)cc1	> 20 µM (inactive)
O=C(Nc1ccc2nc(-c3cccs3)c(-c3cccs3)nc2c1)C1CCC1	> 20 µM (inactive)
O=S(=O)(Nc1ccc2nc(-c3ccccc3)c(-c3ccccc3)nc2c1)C1CC1	> 20 µM (inactive)
COc1ccc(-c2cn3nc(-c4ccc(F)cc4)c(-c4ccc(F)cc4)nc3n2)c(OC)c1	2.9 µM

SMILES	IC50
COc1ccc(-c2cn3nc(-c4ccc(C)cc4)c(-c4ccc(C)cc4)nc3n2)c(OC)c1	> 20 µM (inactive)
COc1ccc(-c2nc3nc(-c4ccc(OC(F)(F)F)cc4)cn3nc2-c2ccc(OC)cc2)cc1	3.7 µM
CC(Oc1ccccc1)C(=O)Nc1ccc2nc(-c3ccccc3)c(-c3ccccc3)nc2c1 (configuration not stated)	> 20 µM (inactive)
Cc1ccc(-c2nc3nc(-c4ccccc4)cn3nc2-c2ccc(C)cc2)cc1	6.8 µM
CCCOC(=O)Nc1ccc2nc(-c3ccccc3)c(-c3ccccc3)nc2c1	> 20 µM (inactive)
COc1ccccc1-c1cn2nc(-c3ccc(C)cc3)c(-c3ccc(C)cc3)nc2n1	12.9 µM
COc1ccc(-c2nc3nc(-c4ccc(C)cc4)cn3nc2-c2ccc(OC)cc2)cc1	> 20 µM (inactive)
Cc1ccc(-c2cn3nc(-c4ccc(C)cc4)c(-c4ccc(C)cc4)nc3n2)cc1	5.1 µM
COc1ccc(-c2nc3nc(-c4cccc(F)c4)cn3nc2-c2ccc(OC)cc2)cc1	5.5 µM
O=C(Nc1ccc2nc(-c3cccs3)c(-c3cccs3)nc2c1)OCc1ccccc1	> 20 µM (inactive)
Cc1ccc(-c2nc3nc(-c4ccc(F)cc4)cn3nc2-c2ccc(C)cc2)cc1	5.9 µM
O=S(=O)(Nc1ccc2nc(-c3cccs3)c(-c3cccs3)nc2c1)C1CC1	> 20 µM (inactive)
Fc1ccc(-c2nc3nc(-c4ccccc4)cn3nc2-c2ccc(F)cc2)cc1	9.6 µM
COc1ccc(-c2nc3nc(-c4ccc(C#N)cc4)cn3nc2-c2ccc(OC)cc2)cc1	> 20 µM (inactive)
Cc1ccc(-c2cn3nc(-c4ccc(F)cc4)c(-c4ccc(F)cc4)nc3n2)cc1	7.2 µM
COc1ccc(-c2nc3nc(-c4ccccc4OC)cn3nc2-c2ccc(OC)cc2)cc1	6.1 µM
Fc1ccc(-c2nc3nc(-c4cccc(F)c4)cn3nc2-c2ccc(F)cc2)cc1	6.7 µM
CCOC(=O)Nc1ccc2nc(-c3cccs3)c(-c3cccs3)nc2c1	> 20 µM (inactive)
COc1ccc(-c2nc3nc(-c4ccc(F)cc4)cn3nc2-c2ccc(OC)cc2)cc1	3.1 µM
CS(=O)(=O)c1ccc(-c2cn3nc(-c4ccc(F)cc4)c(-c4ccc(F)cc4)nc3n2)cc1	> 20 µM (inactive)
O=C(Nc1ccc2nc(-c3cccs3)c(-c3cccs3)nc2c1)C1CCCC1	> 20 µM (inactive)

SMILES	IC50
CCC(=O)Nc1ccc2nc(-c3ccccc3)c(-c3ccccc3)nc2c1	> 20 µM (inactive)
COc1cccc(-c2cn3nc(-c4ccccc4)c(-c4ccccc4)nc3n2)c1	15.2 µM
O=C(Nc1ccc2nc(-c3ccccc3)c(-c3ccccc3)nc2c1)C1CC1	> 20 µM (inactive)
FC(F)(F)Oc1ccc(-c2cn3nc(-c4ccccc4)c(-c4ccccc4)nc3n2)cc1	17.9 µM
O=C(Nc1ccc2nc(-c3cccs3)c(-c3cccs3)nc2c1)NC1CCCC1	> 20 µM (inactive)
COC(=O)Nc1ccc2nc(-c3cccs3)c(-c3cccs3)nc2c1	> 20 µM (inactive)
CC(=O)Nc1ccc2nc(-c3ccccc3)c(-c3ccccc3)nc2c1	> 20 µM (inactive)
O=C(Nc1ccc2nc(-c3ccccc3)c(-c3ccccc3)nc2c1)C1CCCCC1	> 20 µM (inactive)
COc1cccc(-c2cn3nc(-c4ccc(C)cc4)c(-c4ccc(C)cc4)nc3n2)c1	4.3 µM
CC(C)NC(=O)Nc1ccc2nc(-c3cccs3)c(-c3cccs3)nc2c1	> 20 µM (inactive)
COc1ccc(-c2cn3nc(-c4ccc(OC)cc4)c(-c4ccc(OC)cc4)nc3n2)cc1	> 20 µM (inactive)
CC(C)(C)NC(=O)Nc1ccc2nc(-c3ccccc3)c(-c3ccccc3)nc2c1	> 20 µM (inactive)
CC(C)OC(=O)Nc1ccc2nc(-c3cccs3)c(-c3cccs3)nc2c1	> 20 µM (inactive)
COc1ccc(-c2nc3nc(-c4cccc(OC)c4)cn3nc2-c2ccc(OC)cc2)cc1	10.1 µM
CCCOC(=O)Nc1ccc2nc(-c3cccs3)c(-c3cccs3)nc2c1	> 20 µM (inactive)
CC(C)OC(=O)Nc1ccc2nc(-c3ccccc3)c(-c3ccccc3)nc2c1	> 20 µM (inactive)
CC(C)CS(=O)(=O)Nc1ccc2nc(-c3ccccc3)c(-c3ccccc3)nc2c1	> 20 µM (inactive)
Cc1ccc(-c2nc3nc(-c4ccc(S(C)(=O)=O)cc4)cn3nc2-c2ccc(C)cc2)cc1	> 20 µM (inactive)
CC(C)(C)C(=O)Nc1ccc2nc(-c3ccccc3)c(-c3ccccc3)nc2c1	> 20 µM (inactive)
